Measured values as given in PubChem BioAssay AID248 (DTP/NCI, 2004).
Toxic doses and inconclusive results are not listed.

Tested on: L1210 leukemia ip in BDF1 mice, survival T/C
Experiment: NCI In Vivo Anticancer Drug Screen. Data for tumor model L1210 Leukemia (intraperitoneal) in B6D2F1 (BDF1) mice
Conditions: endpoint: mean survival time, higher = longer survival
Method in brief: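 Each compound was tested against a transplantable tumor grown in mice. The endpoint was survival, with treated animals benchmarked against vehicle controls as a simple ratio.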

[1] = dose: 100.0 mg/kg/injection, schedule: Q04DX003 (ip), vehicle: Klucel (hydroxypropylcellulose) (HPC)
[2] = dose: 200.0 mg/kg/injection, schedule: Q04DX003 (ip), vehicle: Klucel (hydroxypropylcellulose) (HPC)
[3] = dose: 400.0 mg/kg/injection, schedule: Q04DX003 (ip), vehicle: Klucel (hydroxypropylcellulose) (HPC)

SMILES: O=C1C(c2ccc(Br)cc2)=C(c2ccccc2)c2c(-c3ccccc3)cc(Br)c(-c3ccccc3)c21
- T/C (dose: 100.0 mg/kg/injection, schedule: Q01DX001 (ip), vehicle: saline with Tween-80): 90 % of control
- T/C (dose: 200.0 mg/kg/injection, schedule: Q01DX001 (ip), vehicle: saline with Tween-80): 90 % of control
- T/C (dose: 400.0 mg/kg/injection, schedule: Q01DX001 (ip), vehicle: saline with Tween-80): 87 % of control

SMILES: Oc1c(Cl)cc(N=Cc2ccc(N(CCCCl)CCCCl)cc2Cl)cc1Cl
- T/C (dose: 50.0 mg/kg/injection, schedule: Q04DX003 (ip), vehicle: Klucel (hydroxypropylcellulose) (HPC)): 101 % of control
- T/C [1]: 104 % of control
- T/C [2]: 101 % of control
- T/C [3]: 98 % of control

SMILES: [Ni+2].[SH2+]C([SH2+])=Nc1ccccc1.[SH2+]C([SH2+])=Nc1ccccc1.c1ccc(C[P+](c2ccccc2)(c2ccccc2)c2ccccc2)cc1
- T/C (dose: 6.0 mg/kg/injection, schedule: Q01DX009 (ip), vehicle: saline): 94 % of control

SMILES: CCCCCCCCCCCCCCCCOc1ccccn1
- T/C (dose: 100.0 mg/kg/injection, schedule: Q01DX009 (ip), vehicle: Klucel (hydroxypropylcellulose) (HPC)): 96 % of control
- T/C [1]: 92 % of control
- T/C (dose: 200.0 mg/kg/injection, schedule: Q01DX009 (ip), vehicle: Klucel (hydroxypropylcellulose) (HPC)): 96 % of control
- T/C [2]: 95 % of control
- T/C (dose: 400.0 mg/kg/injection, schedule: Q01DX009 (ip), vehicle: Klucel (hydroxypropylcellulose) (HPC)): 98 % of control
- T/C [3]: 90 % of control

SMILES: COc1cc(Cc2nccc3cc(OC)c(OC)cc23)c(C(C)=O)cc1OC
- T/C (dose: 0.9 mg/kg/injection, schedule: Q03HX024 (ip), vehicle: saline): 98 % of control
- T/C (dose: 1.8 mg/kg/injection, schedule: Q03HX024 (ip), vehicle: saline): 97 % of control
- T/C (dose: 2.9 mg/kg/injection, schedule: Q01DX Z (ip), vehicle: saline): 107 % of control
- T/C (dose: 3.5 mg/kg/injection, schedule: Q03HX024 (ip), vehicle: saline): 107 % of control
- T/C (dose: 4.4 mg/kg/injection, schedule: Q01DX Z (ip), vehicle: saline): 111 % of control
- T/C (dose: 6.6 mg/kg/injection, schedule: Q01DX Z (ip), vehicle: saline): 115 % of control
- T/C (dose: 7.0 mg/kg/injection, schedule: Q03HX024 (ip), vehicle: saline): 111 % of control
- T/C (dose: 7.0 mg/kg/injection, schedule: Q04DX003 (ip), vehicle: saline): 97 % of control
- T/C (dose: 10.0 mg/kg/injection, schedule: Q01DX Z (ip), vehicle: saline): 119 % of control
- T/C (dose: 14.0 mg/kg/injection, schedule: Q04DX003 (ip), vehicle: saline): 104 % of control
- T/C (dose: 22.0 mg/kg/injection, schedule: Q01DX009 (ip), vehicle: saline): 121 % of control
- T/C (dose: 28.0 mg/kg/injection, schedule: Q04DX003 (ip), vehicle: saline): 120 % of control
- T/C (dose: 33.0 mg/kg/injection, schedule: Q01DX009 (ip), vehicle: saline): 109 % of control
- T/C (dose: 35.0 mg/kg/injection, schedule: Q01DX009 (ip), vehicle: saline): 121 % of control
- T/C (dose: 50.0 mg/kg/injection, schedule: Q01DX009 (ip), vehicle: saline): 154 % of control
- T/C (dose: 56.0 mg/kg/injection, schedule: Q04DX003 (ip), vehicle: saline): 118 % of control
- T/C (dose: 75.0 mg/kg/injection, schedule: Q01DX009 (ip), vehicle: saline): 108 % of control
- T/C (dose: 75.0 mg/kg/injection, schedule: Q01DX Z (ip), vehicle: saline): 93 % of control

SMILES: CCC1(Cl)C(=O)OCc2c1cc1n(c2=O)Cc2cc3ccccc3nc2-1 (stereo not drawn)
- T/C (dose: 1.0 mg/kg/injection, schedule: Q01DX001 (ip), vehicle: saline): 97 % of control
- T/C (dose: 1.0 mg/kg/injection, schedule: Q01DX Z (ip), vehicle: saline): 100 % of control
- T/C (dose: 2.0 mg/kg/injection, schedule: Q01DX001 (ip), vehicle: saline): 101 % of control
- T/C (dose: 2.0 mg/kg/injection, schedule: Q01DX Z (ip), vehicle: saline): 95 % of control
- T/C (dose: 4.0 mg/kg/injection, schedule: Q01DX001 (ip), vehicle: saline): 100 % of control
- T/C (dose: 4.0 mg/kg/injection, schedule: Q01DX Z (ip), vehicle: saline): 97 % of control
- T/C (dose: 6.0 mg/kg/injection, schedule: Q01DX001 (ip), vehicle: saline): 95 % of control
- T/C (dose: 6.0 mg/kg/injection, schedule: Q01DX Z (ip), vehicle: saline): 103 % of control

SMILES: O=C1N(c2ccccc2)C(c2ccncc2)C1(c1ccccc1)c1ccccc1 (stereo not drawn)
- T/C (dose: 87.5 mg/kg/injection, schedule: Q04DX003 (ip), vehicle: gum acacia): 91 % of control
- T/C (dose: 175.0 mg/kg/injection, schedule: Q04DX003 (ip), vehicle: gum acacia): 91 % of control
- T/C (dose: 350.0 mg/kg/injection, schedule: Q04DX003 (ip), vehicle: gum acacia): 91 % of control
